Laboratory results taken from article PMC8075848 (Cell Reports, 2021).
Where two headings read alike, the source gives them in different places.

What was measured:
[1] = molecular target: T1, SARS-CoV-2 M^pro (Severe acute respiratory syndrome coronavirus 2, UniProt P0DTD1); assay: M^pro FRET proteolysis inhibition assay; assay type: biochemical; conditions: 20 μM drug, 10 nM M^pro
[2] = molecular target: T1, SARS-CoV-2 M^pro; assay: M^pro 1D 1H-NMR proteolysis inhibition assay; assay type: biochemical; conditions: 50 μM inhibitor, 100 nM M^pro
[3] = molecular target: SARS-CoV-2 PL^pro (Severe acute respiratory syndrome coronavirus 2, UniProt P0DTD1); assay type: biochemical; conditions: for PL^pro protease activity inhibition, in words: 20 μM drug (grazoprevir in Fig S6: 100 µM)
[4] = test system: SARS-CoV-2; assay: SARS-CoV-2 replication inhibition in Vero E6 cells; assay type: cell-based; conditions: up to 50 μM drug
[5] = test system: SARS-CoV-2; assay: Antiviral combination assay with remdesivir in Vero E6 cells; assay type: cell-based; conditions: for Effect of HCV drug on the antiviral activity of remdesivir, in words / Effect of remdesivir on the antiviral activity (IC90) of the HCV drug, in words: Vero cells; for Effect of HCV drug on the antiviral activity of remdesivir, in words: IC90 of remdesivir with increasing HCV drug; for Effect of remdesivir on the antiviral activity (IC90) of the HCV drug, in words: addition of 1.25 μM remdesivir
[6] = test system: SARS-CoV-2; assay: Time-of-addition assay; assay type: cell-based; conditions: BOC 50 μM, GRZ 25 μM, NAR 50 μM, VAN 5 μM, SIM 5 μM, added -2, 0, +2, +4 h
[7] = test system: Vero E6 cells; conditions: MTT
[8] = test system: PL^pro; conditions: ref Anson et al., 2020; cited from earlier work
[9] = test system: SARS-CoV-2; conditions: ref Lo et al., 2021; cited from earlier work
[10] = test system: M^pro; conditions: cited from earlier work; for Inhibition of M^pro proteolytic activity: ref Anson et al., 2020, Fu et al., Kneller et al., 2020a, Ma et al.
[11] = test system: SARS-CoV-2; assay type: cell-based
[12] = test system: SARS-CoV-2; assay type: cell-based; remark: listed apart in the source
[13] = test system: SARS-CoV-2; conditions: ref Anson et al., 2020, Fu et al., Ma et al.; cited from earlier work

Compound	M^pro inhibition activity in FRET assay, in words [1]	M^pro inhibitory activity in 1D 1H-NMR assay, in words [2]	PL^pro protease activity inhibition, in words [3]	Inhibition of virus replication in Vero E6 cells, in words [4]	Synergy Score (ZIP, SynergyFinder) with remdesivir [5]	further results
COc1ccc2c(O[C@@H]3C[C@H]4C(=O)N[C@]5(C(=O)NS(=O)(=O)C6CC6)C[C@H]5/C=C\CCCCN(C)C(=O)[C@@H]4C3)cc(-c3nc(C(C)C)cs3)nc2c1C [SIM, Simeprevir]	not detected	moderate inhibitory activity	inhibit	inhibited virus replication with low IC50 values	+30.2	Effect of HCV drug on the antiviral activity of remdesivir, in words [5]: increase the antiviral activity of remdesivir; Effect of remdesivir on the antiviral activity (IC90) of the HCV drug, in words [5]: substantially reduces; Inhibition of virus replication by time of drug addition, in words [6]: inhibited by the addition of these drugs as late as 4 h post-infection; Cytotoxicity in Vero E6 cells, in words [7]: some cytotoxicity was also observed; Inhibition of PL^pro [8]: inhibit; Interaction with remdesivir [9]: synergistically
CCC[C@H](NC(=O)[C@@H]1[C@H]2CCC[C@H]2CN1C(=O)[C@@H](NC(=O)[C@@H](NC(=O)c1cnccn1)C1CCCCC1)C(C)(C)C)C(=O)C(=O)NC1CC1 [TEL, Telaprevir]	–	substantial enzyme inhibition activity	–	did not inhibit virus replication	–	Inhibition of M^pro proteolytic activity [10]: inhibit
C=C[C@@H]1C[C@]1(NC(=O)[C@@H]1C[C@@H](Oc2ncc(OC)c3ccc(Cl)cc23)CN1C(=O)[C@@H](NC(=O)OC(C)(C)C)C(C)(C)C)C(=O)NS(=O)(=O)C1CC1 [ASU, Asunaprevir]	not detected	moderate inhibitory activity	–	inhibited SARS-CoV-2 virus replication at concentrations significantly lower than the concentrations that cause cytotoxicity	–	Inhibition of virus replication in human 293T cells, in words [11]: did not inhibit viral replication in human cells at concentrations lower than those exhibiting cytotoxicity; Inhibition of PL^pro [8]: inhibit
C=C[C@@H]1C[C@]1(NC(=O)[C@@H]1C[C@@H]2CN1C(=O)[C@H](C(C)(C)C)NC(=O)O[C@@H]1C[C@H]1CCCCCc1nc3ccc(OC)cc3nc1O2)C(=O)NS(=O)(=O)C1CC1.O [GRZ, Grazoprevir]	not detected	moderate inhibitory activity	inhibit	inhibited SARS-CoV-2 virus replication at concentrations significantly lower than the concentrations that cause cytotoxicity	+25.0	PL^pro initial rate relative to absence of inhibitor (vo/vo,i) ([3]; 100 μM drug concentration): 32% ± 7%; Effect of HCV drug on the antiviral activity of remdesivir, in words [5]: increase the antiviral activity of remdesivir; Effect of remdesivir on the antiviral activity (IC90) of the HCV drug, in words [5]: substantially reduces; Interaction with remdesivir (additive / synergistic) [12]: synergistic (key: a synergistic interaction between drugs has a score greater than +10; an additive interaction has a score between −10 to +10; an antagonistic interaction has a score of less than −10); Synergy Score (ZIP, SynergyFinder) with remdesivir [12]: +20.3; Inhibition of virus replication by time of drug addition, in words [6]: inhibited by the addition of these drugs as late as 4 h post-infection; Inhibition of PL^pro [8]: inhibit
CCC(CC)COC(=O)[C@H](C)N[P@](=O)(OC[C@H]1O[C@@](C#N)(c2ccc3c(N)ncnn23)[C@H](O)[C@@H]1O)Oc1ccccc1 [Remdesivir, remdesivir]	–	–	–	–	–	Inhibition of virus replication by time of drug addition, in words [6]: decreased its ability to suppress virus infection
CC(C)(C)NC(=O)N[C@H](C(=O)N1C[C@H]2[C@@H]([C@H]1C(=O)NC(CC1CCC1)C(=O)C(N)=O)C2(C)C)C(C)(C)C (stereo partly shown) [BOC, Boceprevir]	–	substantial enzyme inhibition activity	–	inhibited SARS-CoV-2 virus replication at concentrations significantly lower than the concentrations that cause cytotoxicity	−7.6	Effect of HCV drug on the antiviral activity of remdesivir, in words [5]: did not significantly affect the antiviral activity of remdesivir; Effect of remdesivir on the antiviral activity (IC90) of the HCV drug, in words [5]: did not significantly affect; Inhibition of M^pro proteolytic activity [10]: inhibit; Inhibition of SARS-CoV-2 replication in Vero cells [13]: inhibit
CC(C)(C)OC(=O)N[C@H]1CCCCC/C=C\[C@@H]2C[C@@]2(C(=O)NS(=O)(=O)C2CC2)NC(=O)[C@@H]2C[C@@H](OC(=O)N3Cc4cccc(F)c4C3)CN2C1=O [DAN, Danoprevir]	–	–	–	did not inhibit virus replication	–	Inhibition of virus replication in human 293T cells, in words [11]: did not inhibit virus replication
CC(C)(C)[C@@H]1NC(=O)O[C@@H]2CCC[C@H]2OC/C=C/C(F)(F)c2nc3ccccc3nc2O[C@@H]2C[C@@H](C(=O)N[C@]3(C(=O)NS(=O)(=O)C4(C)CC4)C[C@H]3C(F)F)N(C2)C1=O [GLE, Glecaprevir]	–	–	–	did not inhibit virus replication	–	Inhibition of virus replication in human 293T cells, in words [11]: did not inhibit virus replication
CC[C@@H]1C[C@]1(NC(=O)[C@@H]1C[C@@H]2CN1C(=O)[C@H](C(C)(C)C)NC(=O)OCC(C)(C)CCCCc1cccc3c1CN(C3)C(=O)O2)C(=O)NS(=O)(=O)C1CC1 [VAN, Vaniprevir]	not detected	substantial inhibitory activity	inhibit	inhibited virus replication with low IC50 values	–	Cytotoxicity in Vero E6 cells, in words [7]: some cytotoxicity was also observed
CCCC[C@H](NC(=O)[C@@H]1[C@@H]2[C@H](CN1C(=O)[C@@H](NC(=O)NC1(CS(=O)(=O)C(C)(C)C)CCCCC1)C(C)(C)C)C2(C)C)C(=O)C(=O)NC1CC1 [NAR, Narlaprevir]	–	substantial enzyme inhibition activity	–	inhibited SARS-CoV-2 virus replication at concentrations significantly lower than the concentrations that cause cytotoxicity	–	Inhibition of M^pro proteolytic activity [10]: inhibit
CC(C)C[C@H](NC(=O)OCc1ccccc1)C(=O)N[C@@H](CC1CCNC1=O)C(O)S(=O)(=O)[O-].[Na+] (stereo partly shown) [GC-376]	–	–	–	–	–	Interaction with remdesivir (additive / synergistic) ([5]; combination with remdesivir, Vero E6 cells): additive (an additive interaction has a score between −10 to +10); Specificity for M^pro relative to PL^pro ([10]; ref Sacco et al., 2020): specific
Cc1cnc(C(=O)N[C@H]2CCCCC/C=C\[C@@H]3C[C@@]3(C(=O)NS(=O)(=O)C3CC3)NC(=O)[C@@H]3C[C@@H](Oc4nc5ccccc5c5ccccc45)CN3C2=O)cn1 [PAR, Paritaprevir]	does not inhibit	does not inhibit	inhibit	inhibited SARS-CoV-2 virus replication at concentrations significantly lower than the concentrations that cause cytotoxicity	+17.3	–
